Results taken from US20050096354A1 (published 2005).

melting point	SMILES
222 to 223 °C	N#Cc1nn(-c2c(Cl)cc(C(F)(F)F)cc2Cl)c(N)c1-c1ccc(F)cc1
197 to 198 °C	N#Cc1nn(-c2c(Cl)cc(C(F)(F)F)cc2Cl)c(N)c1-c1ccc(F)c(Cl)c1
226 to 228 °C	Cc1nc(-c2c(C#N)nn(-c3c(Cl)cc(C(F)(F)F)cc3Cl)c2N)cs1
222 °C	N#Cc1nn(-c2c(Cl)cc(C(F)(F)F)cc2Cl)c(N)c1-c1ccc2c(c1)OCO2
243 to 244 °C	Cc1ccc(-c2c(C#N)nn(-c3c(Cl)cc(C(F)(F)F)cc3Cl)c2N)cc1
161 to 162 °C	N#Cc1nn(-c2c(Cl)cc(C(F)(F)F)cc2Cl)c(N)c1-c1cccc(Cl)c1
206 to 207 °C	N#Cc1nn(-c2c(Cl)cc(C(F)(F)F)cc2Cl)c(N)c1-c1cccs1
178 to 179 °C	N#Cc1nn(-c2c(Cl)cc(C(F)(F)F)cc2Cl)c(N)c1C1CC1(Br)Br (stereo not drawn)
199 to 202 °C	Cc1ccccc1-c1c(C#N)nn(-c2c(Cl)cc(C(F)(F)F)cc2Cl)c1N
222.6 °C	N#Cc1nn(-c2c(Cl)cccc2Cl)c(N)c1-c1ccco1
242 to 244 °C	N#Cc1nn(-c2c(Cl)cc(C(F)(F)F)cc2Cl)c(N)c1-c1ccc(Br)cc1
208 °C	N#Cc1nn(-c2c(Cl)cc(C(F)(F)F)cc2Cl)c(N)c1-c1cccc2ccccc12
197 °C	N#Cc1nn(-c2c(Cl)cc(C(F)(F)F)cc2Cl)c(N)c1-c1ccccc1F
227 °C	N#Cc1nn(-c2c(Cl)cc(C(F)(F)F)cc2Cl)c(N)c1-c1cc(Br)no1
228 to 230 °C	N#Cc1nn(-c2c(Cl)cc(C(F)(F)F)cc2Cl)c(N)c1-c1cc(Cl)cc(Cl)c1
198 to 199 °C	N#Cc1nn(-c2c(Cl)cc(C(F)(F)F)cc2Cl)c(N)c1-c1ccccc1
148 to 151 °C	N#Cc1nn(-c2c(Cl)cc(C(F)(F)F)cc2Cl)c(N)c1-c1ccc(C(F)(F)F)o1
214 to 216 °C	COC(=O)c1cccc(-c2c(C#N)nn(-c3c(Cl)cc(C(F)(F)F)cc3Cl)c2N)c1

melting point	SMILES
265 to 267 °C	N#Cc1nn(-c2c(Cl)cc(C(F)(F)F)cc2Cl)c(N)c1-c1cccnc1
250 °C	COc1ccc(-c2c(C#N)nn(-c3c(Cl)cc(C(F)(F)F)cc3Cl)c2N)cc1OC
162 to 163 °C	N#Cc1nn(-c2c(Cl)cc(C(F)(F)F)cc2Cl)c(N)c1-c1ccc(SC(F)(F)F)s1
279 °C	N#Cc1nn(-c2c(Cl)cc(C(F)(F)F)cc2Cl)c(N)c1-c1onc(Br)c1Br
214 °C	N#Cc1nn(-c2c(Cl)cc(C(F)(F)F)cc2Cl)c(N)c1-c1ccc(Br)s1
266 to 268 °C (dec.)	N#Cc1nn(-c2c(Cl)cc(C(F)(F)F)cc2Cl)c(N)c1-c1ccncc1
187 °C	N#Cc1nn(-c2c(Cl)cc(C(F)(F)F)cc2Cl)c(N)c1-c1cccc(N)c1
193 °C	COc1ccccc1-c1c(C#N)nn(-c2c(Cl)cc(C(F)(F)F)cc2Cl)c1N
222 °C	COc1ccc(-c2c(C#N)nn(-c3c(Cl)cc(C(F)(F)F)cc3Cl)c2N)cc1
192 to 193 °C	N#Cc1nn(-c2c(Cl)cc(C(F)(F)F)cc2Cl)c(N)c1-c1ccccc1Cl
235 to 237 °C	N#Cc1nn(-c2c(Cl)cc(C(F)(F)F)cc2Cl)c(N)c1-c1ccc(Cl)cc1
141 to 142 °C	N#Cc1nn(-c2c(Cl)cc(C(F)(F)F)cc2Cl)c(N)c1-c1ccoc1[S+]([O-])C(F)(F)F (stereo not drawn)
164 °C	N#Cc1nn(-c2c(Cl)cc(C(F)(F)F)cc2Cl)c(N)c1-c1cccc(F)c1
193 to 194 °C	N#Cc1nn(-c2c(Cl)cc(C(F)(F)F)cc2Cl)c(N)c1-c1cc(Cl)oc1Cl
210 to 212 °C	N#Cc1nn(-c2c(Cl)cc(C(F)(F)F)cc2Cl)c(N)c1-c1ccsc1
180 to 181 °C	N#Cc1nn(-c2c(Cl)cc(C(F)(F)F)cc2Cl)c(N)c1-c1ccoc1
210 to 212 °C	N#Cc1nn(-c2c(Cl)cc(C(F)(F)F)cc2Cl)c(N)c1-c1ccccc1C(F)(F)F
212 to 214 °C	N#Cc1nn(-c2c(Cl)cc(C(F)(F)F)cc2Cl)c(N)c1-c1cccc([N+](=O)[O-])c1
